20 molecules from patent US20090306144A1, “PYRIDINE DERIVATIVES OF ALKYL OXINDOLES AS 5-HT7 RECEPTOR ACTIVE AGENTS” (priority 2004, published 2009) can be followed below.

Structures are written as SMILES. Where a name gives a salt, the structure may show the parent alone.

T2 sequence (P31652 whole entry): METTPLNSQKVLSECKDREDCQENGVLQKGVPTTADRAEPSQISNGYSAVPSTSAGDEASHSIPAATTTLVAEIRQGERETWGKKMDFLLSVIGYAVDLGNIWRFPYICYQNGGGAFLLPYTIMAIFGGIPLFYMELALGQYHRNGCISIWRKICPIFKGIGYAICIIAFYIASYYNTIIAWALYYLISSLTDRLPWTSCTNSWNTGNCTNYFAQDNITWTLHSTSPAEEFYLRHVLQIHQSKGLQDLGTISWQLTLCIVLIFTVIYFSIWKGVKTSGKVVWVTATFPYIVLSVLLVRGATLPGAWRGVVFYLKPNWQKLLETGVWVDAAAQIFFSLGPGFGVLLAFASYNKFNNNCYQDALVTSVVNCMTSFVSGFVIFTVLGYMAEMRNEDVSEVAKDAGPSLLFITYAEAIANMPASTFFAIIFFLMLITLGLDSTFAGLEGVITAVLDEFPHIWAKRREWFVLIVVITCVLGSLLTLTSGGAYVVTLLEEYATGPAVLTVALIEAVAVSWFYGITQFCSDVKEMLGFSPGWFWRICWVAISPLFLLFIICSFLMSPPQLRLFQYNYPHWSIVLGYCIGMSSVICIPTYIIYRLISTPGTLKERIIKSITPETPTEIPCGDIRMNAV

In the first data set the target is T1, 5-HT7 receptor (Homo sapiens, UniProt P34969).
T1 construct: expressed in transfected cells; host or cells: CHO cell culture
T1 sequence (P34969 whole entry): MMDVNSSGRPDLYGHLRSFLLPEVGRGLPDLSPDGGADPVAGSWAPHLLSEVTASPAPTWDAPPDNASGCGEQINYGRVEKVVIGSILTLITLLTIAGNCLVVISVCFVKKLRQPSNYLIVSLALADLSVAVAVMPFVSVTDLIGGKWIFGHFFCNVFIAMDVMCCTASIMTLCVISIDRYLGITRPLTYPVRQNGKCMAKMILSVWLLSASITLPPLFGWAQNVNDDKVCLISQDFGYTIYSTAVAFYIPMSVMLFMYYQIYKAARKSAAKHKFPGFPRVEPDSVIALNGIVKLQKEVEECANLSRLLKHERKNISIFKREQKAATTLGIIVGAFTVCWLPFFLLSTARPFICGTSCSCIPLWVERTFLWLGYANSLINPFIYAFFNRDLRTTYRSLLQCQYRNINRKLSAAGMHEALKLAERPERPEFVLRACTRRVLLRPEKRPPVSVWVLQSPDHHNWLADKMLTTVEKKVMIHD
Kind of data set: 5-HT7 receptor binding (3H-LSD, CHO cell culture). The settings on record: ligand 3H-LSD, non-specific binding clozapine (25 μM), read-out: Inhibition of 5-HT7 receptor binding, IC50. As to the method:
(§1) Human cloned receptors or frontal cortex preparations of male Wistar rats weighing 120-200 g were used for the experiments. The protein contents of membrane preparations were determined according to the method of Lowry (1951).
(§2) In the course of 5-HT7 receptor binding studies the applied tissue was CHO cell culture, the ligand was ^3H-LSD, and for the non-specific binding clozapine (25 μM) was used as ligand. In the serotonin uptake experiment cortex was used as tissue. As ligand tritiated serotonin, as non-specifically binding ligand fluoxetine (100 μM) was applied.
(§3) IC50 is the concentration where the difference between whole binding and non-specific binding in the presence of 10 μM serotonin creatinine sulfate is 50%. The compounds with an IC50 value smaller than 100 nmol were considered effective in this test.
By IC50 is commonly meant the point on the concentration scale where inhibition reaches its midpoint. As for `O=C1Nc2cc(F)ccc2C1CCCCN1CCc2sccc2C1` (centres unmarked) [Example 9, 3-[4-(6,7-Dihydro-4H-thieno[3,2-c]pyridin-5-yl)-butyl]-6-fluoro-1,3-dihydro-2H-indol-2-one mono-hydrochloride], the half-inhibitory concentration (IC50) is less than 0.1 µM. Turning to `O=C1Nc2cc(F)ccc2C1CCCCN1CC=C(c2cccc(C(F)(F)F)c2)CC1` (centres unmarked) [Example 12, 6-Fluoro-3-{4-[4-(3-trifluoromethyl-phenyl)-1,2,3,6-tetrahydropyridin-1-yl]-butyl}-1,3-dihydro-2H-indol-2-one monohydrochloride], the IC50 was less than 0.1 µM. For `O=C1Nc2ccccc2C1CCCCN1CCc2sc(Cl)cc2C1` (centres unmarked) [Example 8, 3-[4-(2-Chloro-6,7-dihydro-4H-thieno[3,2-c]-pyridin-5-yl)-butyl]-1,3-dihydro-2H-indol-2-one monohydrochloride], the IC50 was less than 0.1 µM.

For `O=C1Nc2ccc(F)cc2C1CCCCN1CCc2sc(Cl)cc2C1` (centres unmarked) [Example 11, 3-[4-(2-Chloro-6,7-dihydro-4H-thieno[3,2-c]-pyridin-5-yl)-butyl]-5-fluoro-1,3-dihydro-2H-indol-2-one monohydrochloride], the IC50 was less than 0.1 µM.

With `O=C1Nc2ccccc2C1CCCCN1CCc2sccc2C1` (centres unmarked) [Example 6, 3-[4-(6,7-Dihydro-4H-thieno[3,2-c]pyridin-5-yl)-butyl]-1,3-dihydro-2H-indol-2-one monooxalate], the IC50 was less than 0.1 µM.

On to `O=C1Nc2cc(F)ccc2C1CCCCN1CCc2sc(Cl)cc2C1` (centres unmarked) [Example 10, 3-[4-(2-Chloro-6,7-dihydro-4H-thieno[3,2-c]-pyridin-5-yl)-butyl]-6-fluoro-1,3-dihydro-2H-indol-2-one monohydrochloride], for which the IC50 is less than 0.1 µM. In the case of `O=C1Nc2ccc(F)cc2C1CCCCN1CCc2sccc2C1` (centres unmarked) [Example 7, 3-[4-(6,7-Dihydro-4H-thieno[3,2-c]pyridin-5-yl)-butyl]-5-fluoro-1,3-dihydro-2H-indol-2-one monohydrochloride], the IC50 is less than 0.1 µM.

As for `O=C1Nc2ccccc2C1CCCCN1CC=C(c2ccc(Cl)cc2)CC1` (centres unmarked) [Example 13, 3-{4-[4-(4-Chlorophenyl)-1,2,3,6-tetrahydro-pyridin-1-yl]-butyl}-1,3-dihydro-2H-indol-2-one], the IC50 was less than 0.1 µM. On to `O=C1Nc2ccccc2C1CCCCN1CC=C(c2cccc(C(F)(F)F)c2)CC1` (centres unmarked) [Example 5, 3-{4-[4-(3-Trifluoromethyl-phenyl)-1,2,3,6-tetrahydropyridin-1-yl]-butyl}-1,3-dihydro-2H-indol-2-one monooxalate], for which the IC50 is less than 0.1 µM. With `O=C1Nc2ccc(F)cc2C1CCCCN1CC=C(c2cccc(C(F)(F)F)c2)CC1` (centres unmarked) [Example 14, 5-Fluoro-3-{4-[4-(3-trifluoromethyl-phenyl)-1,2,3,6-tetrahydropyridin-1-yl]-butyl}-1,3-dihydro-2H-indol-2-one monohydrochloride], the 50% inhibitory concentration (IC50) is less than 0.1 µM.

Another data set addresses T2, 5-HT uptake (Rattus norvegicus, UniProt P31652).
T2 construct: In the serotonin uptake experiment cortex was used as tissue; from tissue; host or cells: frontal cortex of male Wistar rats
Kind of data set: Serotonin uptake experiment (tritiated serotonin, cortex). It counts as biochemical. The note with it: cortex tissue; ligand tritiated serotonin; non-specific ligand fluoxetine (100 μM); read-out: Inhibition of 5-HT uptake, IC50. As to the method:
as §1, §2, §3
Turning to `O=C1Nc2ccccc2C1CCCCN1CC=C(c2ccc(Cl)cc2)CC1` (centres unmarked) [Example 13, 3-{4-[4-(4-Chlorophenyl)-1,2,3,6-tetrahydro-pyridin-1-yl]-butyl}-1,3-dihydro-2H-indol-2-one], the IC50 is less than 0.1 µM.

Regarding `O=C1Nc2ccc(F)cc2C1CCCCN1CC=C(c2cccc(C(F)(F)F)c2)CC1` (centres unmarked) [Example 14, 5-Fluoro-3-{4-[4-(3-trifluoromethyl-phenyl)-1,2,3,6-tetrahydropyridin-1-yl]-butyl}-1,3-dihydro-2H-indol-2-one monohydrochloride], the 50% inhibitory concentration (IC50) was less than 0.1 µM.

System in another data set: not given
Experiment: not given
Settings: not given
Usually melting point stands for the temperature, or range, at which the solid turns liquid. In turn, `O=C1Nc2cc(F)ccc2C1CCCCN1CC=C(c2cccc(C(F)(F)F)c2)CC1` (centres unmarked) (as salt: hydrochloride) [Example 12, 6-Fluoro-3-{4-[4-(3-trifluoromethyl-phenyl)-1,2,3,6-tetrahydropyridin-1-yl]-butyl}-1,3-dihydro-2H-indol-2-one monohydrochloride] had a melting point of 203 to 205 °C. On to `O=C1Nc2cc(F)ccc2C1CCCCN1CCc2sccc2C1` (centres unmarked) (as salt: hydrochloride) [Example 9, 3-[4-(6,7-Dihydro-4H-thieno[3,2-c]pyridin-5-yl)-butyl]-6-fluoro-1,3-dihydro-2H-indol-2-one mono-hydrochloride], for which the melting point was 194 to 197 °C. As for `O=C1Nc2ccccc2C1CCCCN1CC=C(c2cccc(C(F)(F)F)c2)CC1` (centres unmarked) (as salt: oxalate) [Example 5, 3-{4-[4-(3-Trifluoromethyl-phenyl)-1,2,3,6-tetrahydropyridin-1-yl]-butyl}-1,3-dihydro-2H-indol-2-one monooxalate], the melting point lay in the range of 159 to 161 °C. As for `O=C1Nc2ccccc2C1CCCCN1CCc2sc(Cl)cc2C1` (centres unmarked) (as salt: hydrochloride) [Example 8, 3-[4-(2-Chloro-6,7-dihydro-4H-thieno[3,2-c]-pyridin-5-yl)-butyl]-1,3-dihydro-2H-indol-2-one monohydrochloride], the melting point fell in the range of 103 to 106 °C. `O=C1Nc2ccccc2C1CCCCN1CC=C(c2ccc(Cl)cc2)CC1` (centres unmarked) [Example 13, 3-{4-[4-(4-Chlorophenyl)-1,2,3,6-tetrahydro-pyridin-1-yl]-butyl}-1,3-dihydro-2H-indol-2-one] gave a melting point of 122 to 124 °C.

`O=C1Nc2ccc(F)cc2C1CCCCN1CCc2sc(Cl)cc2C1` (centres unmarked) (as salt: hydrochloride) [Example 11, 3-[4-(2-Chloro-6,7-dihydro-4H-thieno[3,2-c]-pyridin-5-yl)-butyl]-5-fluoro-1,3-dihydro-2H-indol-2-one monohydrochloride] returned a melting point of 161 to 163 °C. In turn, `O=C1Nc2ccccc2C1CCCCN1CC=C(c2ccccc2)CC1` (centres unmarked) gave a melting point of 121 to 126 °C. `O=C1Nc2ccc(F)cc2C1CCCCN1CCc2sccc2C1` (centres unmarked) (as salt: hydrochloride) [Example 7, 3-[4-(6,7-Dihydro-4H-thieno[3,2-c]pyridin-5-yl)-butyl]-5-fluoro-1,3-dihydro-2H-indol-2-one monohydrochloride] returned a melting point of 192 to 194 °C. On the same count and under the same terms, next, `O=C1Nc2ccc(F)cc2C1CCCCN1CC=C(c2cccc(C(F)(F)F)c2)CC1` (centres unmarked) (as salt: hydrochloride) [Example 14, 5-Fluoro-3-{4-[4-(3-trifluoromethyl-phenyl)-1,2,3,6-tetrahydropyridin-1-yl]-butyl}-1,3-dihydro-2H-indol-2-one monohydrochloride]: 201 to 204 °C; `O=C1Nc2ccccc2C1CCCCN1CCc2sccc2C1` (centres unmarked) (as salt: oxalate) [Example 6, 3-[4-(6,7-Dihydro-4H-thieno[3,2-c]pyridin-5-yl)-butyl]-1,3-dihydro-2H-indol-2-one monooxalate]: 168 to 170 °C; `O=C1Nc2cc(F)ccc2C1CCCCN1CCc2sc(Cl)cc2C1` (centres unmarked) (as salt: hydrochloride) [Example 10, 3-[4-(2-Chloro-6,7-dihydro-4H-thieno[3,2-c]-pyridin-5-yl)-butyl]-6-fluoro-1,3-dihydro-2H-indol-2-one monohydrochloride]: 214 to 216 °C.
